In assay [1] the test system is Radical scavenging activity. Put plainly: Antioxidant activity assessed as DPPH radical scavenging activity at 100 ug after 10 mins by UV-Visible spectrophotometry. The assay is classed as functional.
A short description of assay [2]: Antifungal activity against Chrysosporium keratinophilum at 0.5 to 1 mg/ml at 25 degC after 3 days by well plate method. The assay is classed as functional.
The subject of the next assay is Aspergillus flavus. As to the kind of experiment: Antifungal activity against Aspergillus flavus at 0.5 to 1 mg/ml at 25 degC after 3 days by well plate method. The assay is classed as functional, organism-based.
Another assay relates to Pseudomonas aeruginosa. As to the kind of experiment: Antibacterial activity against Pseudomonas aeruginosa ATCC 27853 at 0.5 to 1 mg/ml at 37 degC after 18 hrs by well plate method. The assay is classed as functional, organism-based.
In the next assay the test system is Escherichia coli. As to the kind of experiment: Antibacterial activity against Escherichia coli ATCC 25922 at 0.5 to 1 mg/ml at 37 degC after 18 hrs by well plate method. The assay is classed as functional, organism-based.
The next assay relates to Staphylococcus aureus. As to the kind of experiment: Antibacterial activity against Staphylococcus aureus ATCC 25923 at 0.5 to 1 mg/ml at 37 degC after 18 hrs by well plate method. The assay is classed as functional, organism-based.

Molecules are shown by their SMILES. The source made the active and inactive calls. The calls are words filed in the database; no cut-off is given here.

As to `CC(=O)N1N=C(c2ccc(C)nc2)OC1c1ccc(-c2ccccc2)cc1` (stereo unspecified), in assay [1], the Activity is 15.6%.
Regarding `CC(=O)N1N=C(c2ccc(C)nc2)OC1c1ccc(Cl)cc1Cl` (stereo unspecified), the Activity in assay [1] stood at 62.3%. Besides, the result (in assay [2]; in the assay with Aspergillus flavus; with Pseudomonas aeruginosa; in the assay with Escherichia coli; in the assay on Staphylococcus aureus) was Active.
For `CC(=O)N1N=C(c2ccc(C)nc2)OC1(C)c1ccc(-c2ccccc2)cc1` (stereo unspecified), the Activity in assay [1] amounted to 47.7%.
With `CC(=O)N1N=C(c2ccc(C)nc2)OC1c1ccc(O)c(O)c1` (stereo unspecified), the Activity in assay [1] was 13.3%.
Regarding `CC(=O)N1N=C(c2ccc(C)nc2)OC1c1cccs1` (stereo unspecified), the Activity in assay [1] was found to be 12%.
As for `OC(Cn1cncn1)(Cn1cncn1)c1ccc(F)cc1F`, the outcome (in assay [2]; in the assay with Aspergillus flavus) was Active.
`CC(=O)N1N=C(c2ccc(C)nc2)OC1(C)c1ccc([N+](=O)[O-])cc1` (stereo unspecified): the Activity in assay [1] was 52.4%. Also, the outcome with Pseudomonas aeruginosa, in the assay with Escherichia coli and in the assay with Staphylococcus aureus was Active.
As to `CC(=O)N1N=C(c2ccc(C)nc2)OC1(C)c1sccc1Br` (stereo unspecified), the Activity in assay [1] was 44.2%. Moreover, the result (in assay [2]; with Aspergillus flavus; with Pseudomonas aeruginosa; in the assay on Escherichia coli; in the assay with Staphylococcus aureus) was Active.
With `COc1ccc2cc(C3OC(c4ccc(C)nc4)=NN3C(C)=O)ccc2c1` (stereo unspecified), the Activity in assay [1] was 27.5%.
On the same count and under the same terms, the figure for `CC(=O)c1ccc(C2(C)OC(c3ccc(C)nc3)=NN2C(C)=O)cc1` (stereo unspecified) is 42.3%.
As to `CC(=O)N1N=C(c2ccc(C)nc2)OC1c1cccc(Cl)c1F` (stereo unspecified), the Activity in assay [1] was 37.3%. Also, the outcome (in assay [2]; in the assay with Aspergillus flavus; in the assay with Pseudomonas aeruginosa; in the assay with Escherichia coli; in the assay on Staphylococcus aureus) was Active.
For the compound `CC(=O)N1N=C(c2ccc(C)nc2)OC1c1ccc(Br)cc1` (stereo unspecified), in assay [1], the Activity was 65.5%. Besides, the result (in assay [2]; in the assay with Aspergillus flavus; with Pseudomonas aeruginosa; in the assay with Escherichia coli; in the assay on Staphylococcus aureus) was Active.
`CC(=O)N1N=C(c2ccc(C)nc2)OC1(C)c1cccc(Br)c1` (stereo unspecified): the Activity in assay [1] was 32.9%. Besides, the result (in assay [2]; with Aspergillus flavus; with Pseudomonas aeruginosa; in the assay with Escherichia coli; with Staphylococcus aureus) was Active.
`Cc1cc(C(C)(C)C)c(O)c(C(C)(C)C)c1`: in assay [1], the Activity is 92.4%.
With `CN[C@@H]1[C@H](O[C@H]2[C@H](O[C@H]3[C@H](O)[C@@H](O)[C@H](N=C(N)N)[C@@H](O)[C@@H]3N=C(N)N)O[C@@H](C)[C@]2(O)C=O)O[C@@H](CO)[C@H](O)[C@H]1O`, the result with Pseudomonas aeruginosa, in the assay with Escherichia coli and in the assay with Staphylococcus aureus was Active.
With `CC(=O)N1N=C(c2ccc(C)nc2)OC1c1ccc(Cl)cc1` (stereo unspecified), the Activity in assay [1] stood at 49.2%. Also, the result with Pseudomonas aeruginosa, in the assay with Escherichia coli and in the assay on Staphylococcus aureus was Active.
For `COc1ccc(C2OC(c3ccc(C)nc3)=NN2C(C)=O)c(OC)c1` (stereo unspecified), in assay [1], the Activity stood at 24.3%.

Source of the values: ChEMBL document CHEMBL2434824, “Synthesis, characterization and molecular docking studies of some new 1,3,4-oxadiazolines bearing 6-methylpyridine moiety for antimicrobial property” (Eur J Med Chem, 2013).
